Values joined by “and” are separate entries in the source; they are usually repeats but may differ in a detail not shown here. Equal values may be shown once. Read-outs that look alike come from different tables or passages of the source. Each block holds one compound with its values, some of them ahead of it.
Experiments:
[1] = biological target: T1, bovine serum albumin (BSA) (Bos taurus, UniProt P02769); experiment: Fluorescence quenching of BSA by CQAs (Stern-Volmer, double-log, Van't Hoff); type: binding; settings: for ΔH / ΔS: 300-310 K; for Kd: read-out: Ka (converted); for λa-λj (shift of BSA fluorescence emission): CQA 0 to 5.0 × 10^−6 M
T1 construct: purchased AMRESCO
Experimental: Fluorescence analysis was determined with the LS-45 fluorophotometer (PerkinElmer, USA). […] The synchronous fluorescence spectrum was recorded at Δλ = 15/60 nm at 300 K. The concentration of BSA was set as 0.2 × 10^−6 M, and the concentrations of CQAs were set as 0~5.0 × 10^−6 M by successive additions. The 3D fluorescence spectrum of BSA (0.2 × 10^−6 M) and the BSA-drug (10:1 mol ratio of protein to ligand) complexes were determined at 200–350 nm in 5 nm increments, and the emission spectrum was set as between 200 and 500 nm.
Static and dynamic quenching were two kinds of quenching mechanisms. Both of them followed the equation of Stern-Volmer (Tang and Jia, [2013]): […]
where F0 and F were the fluorescence intensities of BSA with or without CQAs, respectively; KSV were the Stern-Volmer quenching constants; [Q] was the concentration of CQAs.
Binding constants and binding sites could be determined by double logarithmic curve equation (Hemmateenejad et al., [2012]):
(2) logF0-F/F=logKa+nlog[Q]
where F0 and F were the fluorescence intensities of BSA with or without CQAs, respectively; [Q] was the concentrations of CQAs; Ka was the binding constants and n was the number of binding sites.
The binding force between drugs and BSA was non-covalent interaction, like hydrogen-bond interaction, electrostatic forces, hydrophobic effects and Van der Waals forces (Cheng et al., [2015]). The binding parameters could be employed to determine the types of binding forces. The value of ΔH (enthalpy change) and ΔS (entropy changes) could be determined by Van't Hoff equation: […]
where Ka were the binding constants, R were the gas constants and T was the temperatures. Free energy changes (ΔG) could be determined by the following equation: […]

[2] = biological target: T2, BSA (Bos taurus, UniProt P02769); experiment: CD measurement of BSA secondary structure (α-helix content); design: species or system bovine
T2 construct: purchased AMRESCO
Experimental: The J-815 automatic recording spectropolarimeter (Japan) equipped with 1.0 mm path length quartz cuvettes was employed to determine the CD spectrum of BSA and CQAs-BSA. All the CD spectra were recorded from 190 to 250 nm at 300 K, and the scanning speeds were all set as 50 nm·min^−1. The concentration of BSA and CQAs was 2.0 × 10^−6 and 10.0 × 10^−6 M, respectively. Each spectrum was scanned for successive three times and corrected by corresponding buffer solution.
Far-UV CD spectrum could monitor the secondary structures changes of BSA. To further study the interaction of CQAs and BSA and accurately detect the changes of the secondary structures of BSA, CD spectra of BSA was performed in with or without CQAs in different solvent systems.

[3] = test system: bovine serum albumin; settings: ref Li et al., 2010; cited from earlier work

T2 sequence (P02769 25-607): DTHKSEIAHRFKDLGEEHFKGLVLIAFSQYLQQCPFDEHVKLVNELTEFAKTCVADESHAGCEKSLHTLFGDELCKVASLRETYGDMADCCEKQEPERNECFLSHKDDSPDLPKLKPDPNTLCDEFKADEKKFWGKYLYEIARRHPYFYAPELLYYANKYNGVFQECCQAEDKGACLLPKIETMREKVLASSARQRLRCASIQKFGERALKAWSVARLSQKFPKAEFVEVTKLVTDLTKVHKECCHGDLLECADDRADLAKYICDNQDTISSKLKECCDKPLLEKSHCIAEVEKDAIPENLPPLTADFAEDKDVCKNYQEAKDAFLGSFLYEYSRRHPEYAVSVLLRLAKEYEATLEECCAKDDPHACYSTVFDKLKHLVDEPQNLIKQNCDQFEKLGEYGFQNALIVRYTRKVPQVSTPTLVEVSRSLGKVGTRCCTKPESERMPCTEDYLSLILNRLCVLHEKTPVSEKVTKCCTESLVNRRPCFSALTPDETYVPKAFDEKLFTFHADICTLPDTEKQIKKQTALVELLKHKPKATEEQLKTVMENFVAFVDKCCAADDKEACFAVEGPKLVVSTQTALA
T1 sequence (P02769 25-607): as above

Compound: O=C(C=Cc1ccc(O)c(O)c1)OC1C(O)CC(O)(C(=O)O)CC1O (stereo not shown) [4-CQA, 4-O-caffeoylquinic acid]
Fluorescence quenching rate ([1]; H2O): 30.99%
ΔH ([1]; H2O): -60.053 kcal/mol
ΔS ([1]; H2O): -705.46 J·mol^−1·k^−1
KSV ([1]; H2O, 300 K): 83600 L/mol
n (number of binding sites) ([1]; H2O, 300 K): 1.3458
ΔG ([1]; H2O, 300 K): -9.469 kcal/mol
Kd ([1]; H2O, 300 K): 173 nM
KSV ([1]; H2O, 305 K): 60500 L/mol
n (number of binding sites) ([1]; H2O, 305 K): 1.3177
ΔG ([1]; H2O, 305 K): -8.626 kcal/mol
Kd ([1]; H2O, 305 K): 347 nM
KSV ([1]; H2O, 310 K): 57700 L/mol
n (number of binding sites) ([1]; H2O, 310 K): 1.1102
ΔG ([1]; H2O, 310 K): -7.784 kcal/mol
Kd ([1]; H2O, 310 K): 4520 nM
λa-λj (shift of BSA fluorescence emission) ([1]; H2O): -5.5 nm
Fluorescence quenching rate ([1]; PBS): 22.65%
ΔH ([1]; PBS): -64.912 kcal/mol
ΔS ([1]; PBS): -774.09 J·mol^−1·k^−1
KSV ([1]; PBS, 300 K): 132900 L/mol
n (number of binding sites) ([1]; PBS, 300 K): 1.3138
ΔG ([1]; PBS, 300 K): -9.407 kcal/mol
Kd ([1]; PBS, 300 K): 175 nM
KSV ([1]; PBS, 305 K): 98000 L/mol
n (number of binding sites) ([1]; PBS, 305 K): 1.2398
ΔG ([1]; PBS, 305 K): -8.482 kcal/mol
Kd ([1]; PBS, 305 K): 532 nM
KSV ([1]; PBS, 310 K): 60000 L/mol
n (number of binding sites) ([1]; PBS, 310 K): 1.0835
ΔG ([1]; PBS, 310 K): -7.557 kcal/mol
Kd ([1]; PBS, 310 K): 5920 nM
λa-λj (shift of BSA fluorescence emission) ([1]; PBS): -4 nm
Fluorescence quenching rate ([1]; Tris-HCl): 35.83%
binding affinity change (times) when temperature rises from 300 to 310 K ([1]; Tris-HCl): 37.4
ΔH ([1]; Tris-HCl): -52.079 kcal/mol
ΔS ([1]; Tris-HCl): -588.56 J·mol^−1·k^−1
KSV ([1]; Tris-HCl, 300 K): 189400 L/mol
n (number of binding sites) ([1]; Tris-HCl, 300 K): 1.4214
ΔG ([1]; Tris-HCl, 300 K): -9.878 kcal/mol
Kd ([1]; Tris-HCl, 300 K): 30.1 nM
KSV ([1]; Tris-HCl, 305 K): 120400 L/mol
n (number of binding sites) ([1]; Tris-HCl, 305 K): 1.2871
ΔG ([1]; Tris-HCl, 305 K): -9.178 kcal/mol
Kd ([1]; Tris-HCl, 305 K): 238 nM
KSV ([1]; Tris-HCl, 310 K): 47100 L/mol
n (number of binding sites) ([1]; Tris-HCl, 310 K): 1.2434
ΔG ([1]; Tris-HCl, 310 K): -8.473 kcal/mol
Kd ([1]; Tris-HCl, 310 K): 1130 nM
λa-λj (shift of BSA fluorescence emission) ([1]; Tris-HCl): 3.5 nm
increase of α-helix content of BSA ([2]; H2O): 4.84%
increase of α-helix content of BSA ([2]; PBS buffer): 1.97%
increase of α-helix content of BSA ([2]; Tris-HCl buffer): 14.14%

Fluorescence quenching rate [1]: 35.34% and 32.09%
n (number of binding sites) [1]: 0.9251
ΔG ([1]; Tris-HCl, 300 K): -10.18 kcal/mol
ΔG ([1]; Tris-HCl, 305 K): -9.252 kcal/mol
ΔG ([1]; Tris-HCl, 310 K): -8.325 kcal/mol
increase of α-helix content of BSA ([2]; H2O): 0.69%
increase of α-helix content of BSA ([2]; PBS buffer): 0.08%
increase of α-helix content of BSA ([2]; Tris-HCl buffer): 8.16%
Compound: O=C(/C=C/c1ccc(O)c(O)c1)O[C@@H]1C[C@](O)(C(=O)O)C[C@@H](O)[C@H]1O [5-CQA, 5-O-caffeoylquinic acid]
binding constant [3]: higher than that of caffeic acid

Fluorescence quenching rate [1]: 40.14% and 32.93%
ΔG ([1]; H2O, 305 K): -8.535 kcal/mol
ΔG ([1]; H2O, 310 K): -8.05 kcal/mol
ΔG ([1]; PBS, 310 K): -8.081 kcal/mol
ΔG ([1]; Tris-HCl, 300 K): -9.498 kcal/mol
increase of α-helix content of BSA ([2]; Tris-HCl buffer): 5.15%
Compound: O=C(C=Cc1ccc(O)c(O)c1)OC1CC(O)(C(=O)O)CC(O)C1O (stereo not shown) [3-CQA, 3-O-caffeoylquinic acid]

Source: paper PMC6909939, “Study on the Interactions Between Caffeoylquinic Acids With Bovine Serum Albumin: Spectroscopy, Antioxidant Activity, LC-MS^n, and Molecular Docking Approach” (Frontiers in Chemistry, 2019)
